Measured values: patent US11497212B2, “Substituted thiophenyl uracils, salts thereof and the use thereof as herbicidal agents” (Syngenta Crop Protection AG, priority 2017, dated 2022)

system: Glycine max; assay: Crop compatibility pre-emergence (greenhouse pot trial); format: in vivo; details: application rate 80 g/ha, effect vs untreated controls
Summary of the method: (§1)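 Seeds sown in pots and covered with soil; compounds formulated as WP or EC applied pre-emergence to the soil surface as aqueous suspension/emulsion with 0.5% additive at 600 L/ha water. Plants kept in greenhouse; crop damage scored visually after about 3 weeks as % versus untreated controls (0% = like control, 100% = dead).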

Row | Glycine max (Efficacy in %) | Structure (SMILES)
1 | 0% | CC1CC(COC(=O)C(C)Sc2cc(-n3c(=O)cc(C(F)(F)F)n(C)c3=O)c(F)cc2Cl)CO1 (stereo not shown) [I.1-73]

system: Zea mays; assay: as above; format: in vivo; details: application rate 80 g/ha, effect vs untreated controls
Summary of the method: as §1

Row | Zea mays (Efficacy in %) | Structure (SMILES)
2 | 0% | CC1CC(COC(=O)C(C)Sc2cc(-n3c(=O)cc(C(F)(F)F)n(C)c3=O)c(F)cc2Cl)CO1 (stereo not shown) [I.1-73]

system: Amaranthus retroflexus; assay: Herbicidal action pre-emergence (greenhouse pot trial); format: in vivo; details: application rate 320 g/ha, scored after about 3 weeks
Summary of the method: (§2)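 Application rates of 320 g/ha or lower were used, with compounds delivered onto covering soil before weed emergence. After roughly three weeks in the greenhouse, damage was judged by eye as a percentage versus untreated plants.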

Row | Structure (SMILES) | Amaranthus retroflexus (Efficacy in %)
3 | CC1CC(COC(=O)C(C)Sc2cc(-n3c(=O)cc(C(F)(F)F)n(C)c3=O)c(F)cc2Cl)CO1 (stereo not shown) [I.1-73] | 100%

system: Setaria viridis; assay: as above; format: in vivo; details: application rate 320 g/ha, scored after about 3 weeks
Summary of the method: as §2

Row | Structure (SMILES) | Setaria viridis (Efficacy in %)
4 | CC1CC(COC(=O)C(C)Sc2cc(-n3c(=O)cc(C(F)(F)F)n(C)c3=O)c(F)cc2Cl)CO1 (stereo not shown) [I.1-73] | 100%

system: Veronica persica; assay: as above; format: in vivo; details: application rate 320 g/ha
Summary of the method: as §2

Row | Structure (SMILES) | Veronica persica (Efficacy in %)
5 | CC1CC(COC(=O)C(C)Sc2cc(-n3c(=O)cc(C(F)(F)F)n(C)c3=O)c(F)cc2Cl)CO1 (stereo not shown) [I.1-73] | 100%

system: Avena fatua; assay: as above; format: in vivo; details: application rate 320 g/ha
Summary of the method: as §2

Row | Structure (SMILES) | Avena fatua (Efficacy in %)
6 | CC1CC(COC(=O)C(C)Sc2cc(-n3c(=O)cc(C(F)(F)F)n(C)c3=O)c(F)cc2Cl)CO1 (stereo not shown) [I.1-73] | 90%

system: Abutilon theophrasti; assay: as above; format: in vivo; details: application rate 320 g/ha, scored after about 3 weeks
Summary of the method: as §2

Row | Structure (SMILES) | Abutilon theophrasti (Efficacy in %)
7 | CC1CC(COC(=O)C(C)Sc2cc(-n3c(=O)cc(C(F)(F)F)n(C)c3=O)c(F)cc2Cl)CO1 (stereo not shown) [I.1-73] | 100%

system: Matricaria inodora; assay: as above; format: in vivo; details: application rate 320 g/ha, scored after about 3 weeks
Summary of the method: as §2

Row | Structure (SMILES) | Matricaria inodora (Efficacy in %)
8 | CC1CC(COC(=O)C(C)Sc2cc(-n3c(=O)cc(C(F)(F)F)n(C)c3=O)c(F)cc2Cl)CO1 (stereo not shown) [I.1-73] | 100%

system: Echinochloa crus-galli; assay: as above; format: in vivo; details: application rate 320 g/ha, scored after about 3 weeks
Summary of the method: as §2

Row | Structure (SMILES) | Echinochloa crus-galli (Efficacy in %)
9 | CC1CC(COC(=O)C(C)Sc2cc(-n3c(=O)cc(C(F)(F)F)n(C)c3=O)c(F)cc2Cl)CO1 (stereo not shown) [I.1-73] | 100%

system: Viola tricolor; assay: as above; format: in vivo; details: application rate 320 g/ha, scored after about 3 weeks
Summary of the method: as §2

Row | Structure (SMILES) | Viola tricolor (Efficacy in %)
10 | CC1CC(COC(=O)C(C)Sc2cc(-n3c(=O)cc(C(F)(F)F)n(C)c3=O)c(F)cc2Cl)CO1 (stereo not shown) [I.1-73] | 100%

system: Hordeum murinum; assay: as above; format: in vivo; details: application rate 320 g/ha
Summary of the method: as §2

Row | Structure (SMILES) | Hordeum murinum (Efficacy in %)
11 | CC1CC(COC(=O)C(C)Sc2cc(-n3c(=O)cc(C(F)(F)F)n(C)c3=O)c(F)cc2Cl)CO1 (stereo not shown) [I.1-73] | 90%

system: Lolium rigidum; assay: as above; format: in vivo; details: application rate 320 g/ha
Summary of the method: as §2

Row | Structure (SMILES) | Lolium rigidum (Efficacy in %)
12 | CC1CC(COC(=O)C(C)Sc2cc(-n3c(=O)cc(C(F)(F)F)n(C)c3=O)c(F)cc2Cl)CO1 (stereo not shown) [I.1-73] | 100%

system: Digitaria sanguinalis; assay: as above; format: in vivo; details: application rate 80 g/ha
Summary of the method: as §2

Row | Structure (SMILES) | Digitaria sanguinalis (Efficacy in %)
13 | CC1CC(COC(=O)C(C)Sc2cc(-n3c(=O)cc(C(F)(F)F)n(C)c3=O)c(F)cc2Cl)CO1 (stereo not shown) [I.1-73] | 100%

system: Stellaria media; assay: as above; format: in vivo; details: application rate 320 g/ha, scored after about 3 weeks
Summary of the method: as §2

Row | Structure (SMILES) | Stellaria media (Efficacy in %)
14 | CC1CC(COC(=O)C(C)Sc2cc(-n3c(=O)cc(C(F)(F)F)n(C)c3=O)c(F)cc2Cl)CO1 (stereo not shown) [I.1-73] | 100%

system: Pharbitis purpurea; assay: as above; format: in vivo; details: application rate 320 g/ha
Summary of the method: as §2

Row | Structure (SMILES) | Pharbitis purpurea (Efficacy in %)
15 | CC1CC(COC(=O)C(C)Sc2cc(-n3c(=O)cc(C(F)(F)F)n(C)c3=O)c(F)cc2Cl)CO1 (stereo not shown) [I.1-73] | 100%

system: Triticum aestivum; assay: Crop compatibility post-emergence (greenhouse pot trial); format: in vivo; details: application rate 80 g/ha
Summary of the method: (§3)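 Greenhouse pot trial: sandy loam, sown seeds, treatment at one-leaf stage 2–3 wk after sowing. Spray: aqueous WP/EC preparation, 0.5% additive, 600 L/ha. Readout: visual % effect after ~3 wk relative to untreated plants.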

Row | Triticum aestivum (Efficacy in %) | Structure (SMILES)
16 | 20% | CC1CC(COC(=O)C(C)Sc2cc(-n3c(=O)cc(C(F)(F)F)n(C)c3=O)c(F)cc2Cl)CO1 (stereo not shown) [I.1-73]

system: Oryza sativa; assay: as above; format: in vivo; details: application rate 20 g/ha
Summary of the method: as §3

Row | Oryza sativa (Efficacy in %) | Structure (SMILES)
17 | 5% | CC1CC(COC(=O)C(C)Sc2cc(-n3c(=O)cc(C(F)(F)F)n(C)c3=O)c(F)cc2Cl)CO1 (stereo not shown) [I.1-73]

system: Amaranthus retroflexus; assay: Herbicidal action post-emergence (greenhouse pot trial); format: in vivo; details: application rate 80 g/ha, scored visually after about 3 weeks vs untreated controls
Summary of the method: (§4)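 Sowing in sandy loam, then 2–3 weeks of controlled greenhouse growth. Next, one-leaf-stage plants received a foliar spray of the WP- or EC-formulated compound with 0.5% additive (600 L/ha water, application rate of 80 g/ha or below). Finally, after about 3 weeks under optimal conditions, effect was judged by eye against controls.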

Row | Structure (SMILES) | Amaranthus retroflexus (Efficacy in %)
18 | CC1CC(COC(=O)C(C)Sc2cc(-n3c(=O)cc(C(F)(F)F)n(C)c3=O)c(F)cc2Cl)CO1 (stereo not shown) [I.1-73] | 100%

system: Setaria viridis; assay: as above; format: in vivo; details: application rate 80 g/ha, scored visually after about 3 weeks vs untreated controls
Summary of the method: as §4

Row | Structure (SMILES) | Setaria viridis (Efficacy in %)
19 | CC1CC(COC(=O)C(C)Sc2cc(-n3c(=O)cc(C(F)(F)F)n(C)c3=O)c(F)cc2Cl)CO1 (stereo not shown) [I.1-73] | 100%

system: Veronica persica; assay: as above; format: in vivo; details: application rate 80 g/ha
Summary of the method: as §4

Row | Structure (SMILES) | Veronica persica (Efficacy in %)
20 | CC1CC(COC(=O)C(C)Sc2cc(-n3c(=O)cc(C(F)(F)F)n(C)c3=O)c(F)cc2Cl)CO1 (stereo not shown) [I.1-73] | 100%

system: Abutilon theophrasti; assay: as above; format: in vivo; details: application rate 80 g/ha, scored visually after about 3 weeks vs untreated controls
Summary of the method: as §4

Row | Structure (SMILES) | Abutilon theophrasti (Efficacy in %)
21 | CC1CC(COC(=O)C(C)Sc2cc(-n3c(=O)cc(C(F)(F)F)n(C)c3=O)c(F)cc2Cl)CO1 (stereo not shown) [I.1-73] | 100%

system: Polygonum convolvulus; assay: as above; format: in vivo; details: application rate 80 g/ha, scored visually after about 3 weeks vs untreated controls
Summary of the method: as §4

Row | Structure (SMILES) | Polygonum convolvulus (Efficacy in %)
22 | CC1CC(COC(=O)C(C)Sc2cc(-n3c(=O)cc(C(F)(F)F)n(C)c3=O)c(F)cc2Cl)CO1 (stereo not shown) [I.1-73] | 100%

system: Matricaria inodora; assay: as above; format: in vivo; details: application rate 80 g/ha, scored visually after about 3 weeks vs untreated controls
Summary of the method: as §4

Row | Structure (SMILES) | Matricaria inodora (Efficacy in %)
23 | CC1CC(COC(=O)C(C)Sc2cc(-n3c(=O)cc(C(F)(F)F)n(C)c3=O)c(F)cc2Cl)CO1 (stereo not shown) [I.1-73] | 100%

system: Echinochloa crus-galli; assay: as above; format: in vivo; details: application rate 80 g/ha, scored visually after about 3 weeks vs untreated controls
Summary of the method: as §4

Row | Structure (SMILES) | Echinochloa crus-galli (Efficacy in %)
24 | CC1CC(COC(=O)C(C)Sc2cc(-n3c(=O)cc(C(F)(F)F)n(C)c3=O)c(F)cc2Cl)CO1 (stereo not shown) [I.1-73] | 100%

system: Viola tricolor; assay: as above; format: in vivo; details: application rate 80 g/ha
Summary of the method: as §4

Row | Structure (SMILES) | Viola tricolor (Efficacy in %)
25 | CC1CC(COC(=O)C(C)Sc2cc(-n3c(=O)cc(C(F)(F)F)n(C)c3=O)c(F)cc2Cl)CO1 (stereo not shown) [I.1-73] | 100%

system: Hordeum murinum; assay: as above; format: in vivo; details: application rate 80 g/ha, scored visually after about 3 weeks vs untreated controls
Summary of the method: as §4

Row | Structure (SMILES) | Hordeum murinum (Efficacy in %)
26 | CC1CC(COC(=O)C(C)Sc2cc(-n3c(=O)cc(C(F)(F)F)n(C)c3=O)c(F)cc2Cl)CO1 (stereo not shown) [I.1-73] | 80%

system: Alopecurus myosuroides; assay: as above; format: in vivo; details: application rate 80 g/ha, scored visually after about 3 weeks vs untreated controls
Summary of the method: as §4

Row | Structure (SMILES) | Alopecurus myosuroides (Efficacy in %)
27 | CC1CC(COC(=O)C(C)Sc2cc(-n3c(=O)cc(C(F)(F)F)n(C)c3=O)c(F)cc2Cl)CO1 (stereo not shown) [I.1-73] | 90%

system: Lolium rigidum; assay: as above; format: in vivo; details: application rate 80 g/ha, scored visually after about 3 weeks vs untreated controls
Summary of the method: as §4

Row | Structure (SMILES) | Lolium rigidum (Efficacy in %)
28 | CC1CC(COC(=O)C(C)Sc2cc(-n3c(=O)cc(C(F)(F)F)n(C)c3=O)c(F)cc2Cl)CO1 (stereo not shown) [I.1-73] | 90%

system: Digitaria sanguinalis; assay: as above; format: in vivo; details: application rate 80 g/ha
Summary of the method: as §4

Row | Structure (SMILES) | Digitaria sanguinalis (Efficacy in %)
29 | CC1CC(COC(=O)C(C)Sc2cc(-n3c(=O)cc(C(F)(F)F)n(C)c3=O)c(F)cc2Cl)CO1 (stereo not shown) [I.1-73] | 100%

system: Stellaria media; assay: as above; format: in vivo; details: application rate 80 g/ha, scored visually after about 3 weeks vs untreated controls
Summary of the method: as §4

Row | Structure (SMILES) | Stellaria media (Efficacy in %)
30 | CC1CC(COC(=O)C(C)Sc2cc(-n3c(=O)cc(C(F)(F)F)n(C)c3=O)c(F)cc2Cl)CO1 (stereo not shown) [I.1-73] | 100%

system: Pharbitis purpurea; assay: as above; format: in vivo; details: application rate 80 g/ha
Summary of the method: as §4

Row | Structure (SMILES) | Pharbitis purpurea (Efficacy in %)
31 | CC1CC(COC(=O)C(C)Sc2cc(-n3c(=O)cc(C(F)(F)F)n(C)c3=O)c(F)cc2Cl)CO1 (stereo not shown) [I.1-73] | 100%
